Key:
[1] = One month rat study, formation of biliary lesions; format: in vivo; conditions: for Formation of Biliary Lesions: rats; for biliary lesion formation in rats: doses up to 300 mg/kg for a month
From the text: Further investigation established that the toxic agent was a metabolite arising from in vivo oxidative hydroxylation of the alkyl chain containing the tertiary carbinol moiety of compound f.

MCHR [2] = target: T1, MCHR (Rattus norvegicus, UniProt P97639); assay: Assessment of in vivo MCHR activity in young growing rats (four day efficacy model); conditions: for Efficacy at 30 mg/kg (weight loss in young growing rats): 30 mg/kg daily p.o. of ester prodrug, four day model; for Weight Reduction versus Vehicle: young growing rats
T1 construct: from tissue; host or cells: whole animal: male Sprague Dawley / Charles River rats
Protocol: Male SPRAGUE DAWLEY® (CD, Charles River Breeding Laboratory) rats weighing approximately 240 grams were place in individual plastic cages with ALPHADRI® bedding. The room was maintained at 72° F. and 50% humidity, and a 12/12 light dark cycle with lights out at 1600 hours. The rats were conditioned for 5 days prior to the start of the study to having a choice of foods. A normal chow (HARLAN TEKLAD®, 2018) that contains 18% protein, 5% fat and 73% carbohydrate and a high fat high sugar diet (Research Diets (D2327)) that contains 20% protein, 40% fat and 40% carbohydrate where the carbohydrate is entirely sucrose and the fat is soybean and coconut oil. […] Body weight and consumption of both kinds of food as well as water intake were measured daily. Water was available ad lib throughout the study. Food consumption is presented as daily caloric consumption which is the sum of grams of chow multiplied by the Kcal per gram (3.5) plus grams of high fat high sugar multiplied by Kcal per gram (4.59).
Baseline body weight was measured prior to drug treatment on day 0 of the study. Baseline food consumption was the average of the 3 days prior to the first drug treatment. […] All data were evaluated using ANOVA and Fishers PLSD statistics.

[3] = system: cytochrome P450 enzymes (rat microsomal); assay: Metabolic stability versus rat microsomal oxidative degradation; conditions: rat microsomal oxidative degradation mediated by cytochrome P450
[4] = Full PK study in dog (half-life); conditions: in vivo
[5] = Rat PK model / eight hour PK study after oral prodrug ester; format: in vivo; conditions: Sprague-Dawley; for AUC: blood, 10 mg/kg oral prodrug ester, 8 hr AUC of bio-active substance, no unit in table (b280 micromole*hr); for Kp: brain and plasma, 10 mg/kg oral dose of amino acid ester prodrug (valine or glycine), bio-active substance
Protocol: The relative ability of the prodrug to enhance exposure (bioavailability) was assessed in an eight hour PK study using cannulated SPRAGUE DAWLEY® (CD, Charles River Breeding Laboratory) rats. The compounds (parent and pro-drug esters) were administered p.o. at 2.0 ml/kg as a suspension in 0.5% methyl cellulose, 0.1% Tween 80 in water at 10 mg/kg p.o. Blood samples were taken at 1, 2, 4 and 8 hr. After determination of parent concentration, an AUC was calculated for the eight hour study.

[6] = target: T2, mutated (E4Q, A5T) hMCHR1 receptor (Homo sapiens, UniProt Q99705, A5T/E4Q); assay: Radioligand binding assay for assessment of MCHR1 activity; conditions: competition vs [Phe13,[125I]Tyr19]-MCH, HEK-293 membranes
T2 construct: expressed in transfected cells; host or cells: HEK-293 (stably transfected), membrane preparation
From the text: Compounds of the present invention, namely Compounds IA and IB of the invention, and Compounds a to f (prepared as described in U.S. Patent Publication No. 2007/0093509 A1 published Apr. 26, 2007), were initially characterized in an in vitro binding assay to determine their Ki or ability to antagonize binding of a peptide agonist to the human melanin concentrating hormone receptor (MCHR1).
Radioligand Binding Assay for Assessment of MCHR1 Activity
Membranes from stably transfected HEK-293 cells expressing a mutated (E4Q, A5T) hMCHR1 receptor were prepared by dounce homogenization and differential centrifugation. Binding experiments were carried out with 0.5-1.0 ug of membrane protein incubated in a total of 0.2 ml in 25 mM HEPES (pH 7.4) with 10 mM MgCl2, 2 mM EGTA, and 0.1% BSA (Binding Buffer) for 90 min. For competition binding assays, reactions were carried out in the presence of with 0.06-0.1 nM [Phe^13, [^125I]Tyr^19]-MCH and increasing concentrations of unlabeled test molecules. Reactions were terminated by rapid vacuum filtration over 96 well-GFC Unifilter plates pre-coated with 0.075 ml binding buffer containing 1% BSA, and washed 3 times with 0.4 ml of Phospho-buffered Saline (pH 7.4) containing 0.01% TX-100, Filters were dried, 0.05 ml MicroScint 20 was added to each well and radioactivity was subsequently quantified by scintillation counting on a TOPCOUNT® microplate scintillation counter (Packard). Inhibitory constants were determined by nonlinear least squares analysis using a four parameter logistic equation.

hepatocytes [7] = assay: Hepatocyte clearance, human; format: in vitro ADME
From the text: As a consequence the projected human half-life for these two compounds was predicted to be 20 to 40 hr.

hepatocytes [8] = assay: Hepatocyte clearance, dog; format: in vitro ADME
MCHR [9] = target: T1, MCHR; assay: Assessment of MCHR in vivo activity in mature obese rats; conditions: dosed as prodrug
Protocol: Male rats, obtained from Charles River Laboratories weighing 250-300 g, were singly housed in plastic cages on a 12 hour light, 12 hour dark cycle with lights out at 1 pm. The animal room was maintained at 72 degrees F. and 50% humidity. The rats were made obese by giving them simultaneous access to two different diets, HARLAN TEKLAD® rat chow (standard chow) and Research Diets D12327 (a high fat, high carbohydrate, highly palatable diet). The Research Diets chow is comprised of 40% vegetable fat, 40% carbohydrate (sucrose) and 20% protein. The Harlan diet is comprised of 5% fat (soybean oil), 67% carbohydrate (starch) and 22% protein. The normal Harlan rat diet used contains 3.4 kcal/gram of diet, and Research Diet #12327 contains 4.59 kcal/gram. The rats were on the choice diet regime for 10 weeks in order to induce obesity. Once started on the choice diet regime the rats are maintained on it for the duration of the study. Baseline feeding and body weight were collected and used to sort animals into treatment groups. Mean rat weight at the start of the choice diet was 250 grams. The mean weight of the rats at the start of chronic dosing was 661.7±6.3 (mean±sem) grams.
Rats were dosed orally one hour before the start of the dark cycle. Body weight and food consumption were measured daily at the time of dosing. Food consumption was converted to Kcal consumed. Total Kcal consumed was determined by adding the Kcal consumed for each diet and this was determined by multiplying grams of each diet consumed times the Kcal/gram. […]

[10] = 3 mg/kg p.o. daily day 0-4, dosed as prodrug
[11] = 10 mg/kg p.o. daily day 0-4, dosed as prodrug
[12] = 30 mg/kg p.o. daily day 0-4, dosed as prodrug

T2 sequence (Q99705 whole entry E4Q/A5T): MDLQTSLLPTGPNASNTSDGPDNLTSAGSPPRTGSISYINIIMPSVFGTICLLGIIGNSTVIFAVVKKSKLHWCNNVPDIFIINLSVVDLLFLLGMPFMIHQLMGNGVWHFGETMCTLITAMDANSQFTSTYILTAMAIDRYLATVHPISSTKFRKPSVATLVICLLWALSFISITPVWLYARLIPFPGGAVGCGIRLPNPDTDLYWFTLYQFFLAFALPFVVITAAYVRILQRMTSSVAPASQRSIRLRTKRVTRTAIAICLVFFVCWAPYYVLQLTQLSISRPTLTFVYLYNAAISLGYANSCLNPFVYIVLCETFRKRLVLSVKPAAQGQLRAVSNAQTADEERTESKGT
T1 sequence (P97639 whole entry): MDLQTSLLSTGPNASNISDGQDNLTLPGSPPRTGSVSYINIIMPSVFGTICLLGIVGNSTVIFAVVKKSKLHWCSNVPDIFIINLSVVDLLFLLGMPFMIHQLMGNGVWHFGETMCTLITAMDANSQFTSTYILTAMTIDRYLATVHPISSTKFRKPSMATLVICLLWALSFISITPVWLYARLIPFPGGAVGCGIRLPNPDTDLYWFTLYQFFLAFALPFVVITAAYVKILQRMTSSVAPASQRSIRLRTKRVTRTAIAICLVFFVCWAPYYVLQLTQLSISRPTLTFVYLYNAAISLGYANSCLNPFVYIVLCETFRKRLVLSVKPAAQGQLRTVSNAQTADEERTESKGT

## COc1cc(-n2cnc3cc(-c4ccc(Cl)cc4)sc3c2=O)ccc1OCC1(O)COC1 [b]
[1]
  Formation of Biliary Lesions: Yes
MCHR [2]
  Efficacy at 30 mg/kg (weight loss in young growing rats): 0%
[3]
  Rat Microsomal Stability: 40%

## COc1cc(-n2cnc3cc(-c4ccc(Cl)cc4)sc3c2=O)ccc1OC[C@H](O)C1CC1 [IA, (R)-6-(4-Chlorophenyl)-3-(4-(2-cyclopropyl-2-hydroxyethoxy)-3-methoxyphenyl)-thieno[3,2-d]pyrimidin-4(3H)-one]
[4]; Dog Half-life (hr)
  half-life: < 20 h
[1]
  biliary lesion formation in rats: neither compound IA nor compound IB induced biliary lesion formation
  Formation of Biliary Lesions: No
[5]
  AUC: 24.5 µM·h
  Kp: 0.9
[6]
  Ki: 10 nM
MCHR [2]
  Efficacy at 30 mg/kg (weight loss in young growing rats): 6.4%
[3]
  Rat Microsomal Stability: 92%
Hepatocytes [7]
  hepatocyte clearance: approximated that of dog

## COc1cc(-n2cnc3cc(-c4ccc(Cl)cc4)sc3c2=O)ccc1OCC(C)(C)O [f]
[4]; Dog Half-life (hr)
  half-life: > 200 h
[1]; 30 mg/kg for a month
  biliary lesions in rats: developed obstructive hepatic biliary lesions
[1]
  Formation of Biliary Lesions: Yes
Hepatocytes [8]
  hepatocyte clearance: very slow
[5]
  AUC: 45 µM·h
  Kp: 2
[6]
  Ki: 12 nM
MCHR [2]
  Efficacy at 30 mg/kg (weight loss in young growing rats): 8.2%
[3]
  Rat Microsomal Stability: 98%
Hepatocytes [7]
  hepatocyte clearance: very slow

## CCS(=O)(=O)CC(O)COc1ccc(-n2cnc3cc(-c4ccc(Cl)cc4)sc3c2=O)cc1OC (stereo not drawn) [e]
[1]
  Formation of Biliary Lesions: No
[5]
  AUC: 46 µM·h
  Kp: 0.09
[6]
  Ki: 8 nM
MCHR [2]
  Efficacy at 30 mg/kg (weight loss in young growing rats): 4.5%
[3]
  Rat Microsomal Stability: 100%

## (R)-6-(4-Chlorophenyl)-3-(4-(2-cyclopropyl -2-hydroxyethoxy)-3-methoxyphenyl)-thieno[3,2-d]pyrimidin-4(3H)-one [IA]
MCHR [9]; 0.3 mg/kg oral chronic dosing
  Weight Reduction versus Vehicle: 2.09%
MCHR [9]; 1 mg/kg oral chronic dosing
  Weight Reduction versus Vehicle: 3.90%
MCHR [9]; 3 mg/kg oral chronic dosing
  Weight Reduction versus Vehicle: 3.57%
MCHR [9]; 10 mg/kg oral chronic dosing
  Weight Reduction versus Vehicle: 8.42%
MCHR [9]; 30 mg/kg oral chronic dosing
  Weight Reduction versus Vehicle: 10.16%
MCHR [2]; [10]
  Weight Reduction versus Vehicle: 2.6%
MCHR [2]; [11]
  Weight Reduction versus Vehicle: 3.5%
MCHR [2]; [12]
  Weight Reduction versus Vehicle: 6.4%

## COc1cc(-n2cnc3cc(-c4ccc(Cl)cc4)sc3c2=O)ccc1OC[C@H](OC(=O)CN)C1CC1.Cl [Example 5, (R)-2-(4-(6-(4-Chlorophenyl)-4-oxothieno[3,2-d]pyrimidin-3(4H)-yl)-2-methoxy-phenoxy)-1-cyclopropylethyl 2-aminoacetate, hydrochloride salt]
other
  melting point: 218 to 220 °C

## COc1cc(-n2cnc3cc(-c4ccc(Cl)cc4)sc3c2=O)ccc1OCC1(O)CCC1 [a]
[3]
  Rat Microsomal Stability: 20%

## COc1cc(-n2cnc3cc(-c4ccc(Cl)cc4)sc3c2=O)ccc1OCC(O)CC(F)(F)F (stereo not drawn) [d]
[1]
  Formation of Biliary Lesions: No
[5]
  AUC: 20 µM·h
  Kp: 1.1
[6]
  Ki: 11 nM
MCHR [2]
  Efficacy at 30 mg/kg (weight loss in young growing rats): 3.2%
[3]
  Rat Microsomal Stability: 100%

## COc1cc(-n2cnc3cc(-c4ccc(Cl)cc4)sc3c2=O)ccc1OCC1(O)CC(F)(F)C1 [IB, 6-(4-Chlorophenyl)-3-(4-((3,3-difluoro-1-hydroxycyclobutyl)methoxy)-3-methoxyphenyl)thieno[3,2-d]pyrimidin-4(3H)-one]
[4]
  half-life: 16 h
[4]; Dog Half-life (hr)
  half-life: < 20 h
[1]
  biliary lesion formation in rats: neither compound IA nor compound IB induced biliary lesion formation
  Formation of Biliary Lesions: No
[5]
  AUC: 38 µM·h
  Kp: 2.5
[6]
  Ki: 18 nM
MCHR [9]; 0.03 mg/kg oral chronic dosing
  Weight Reduction versus Vehicle: 1.7%
MCHR [9]; 0.1 mg/kg oral chronic dosing
  Weight Reduction versus Vehicle: 3.2%
MCHR [9]; 0.3 mg/kg oral chronic dosing
  Weight Reduction versus Vehicle: 5.0%
MCHR [9]; 1 mg/kg oral chronic dosing
  Weight Reduction versus Vehicle: 6.6%
MCHR [9]; 3 mg/kg oral chronic dosing
  Weight Reduction versus Vehicle: 7.8%
MCHR [2]
  Efficacy at 30 mg/kg (weight loss in young growing rats): 7.9%
MCHR [2]; 1 mg/kg p.o. daily day 0-4, dosed as prodrug
  Weight Reduction versus Vehicle: 2.9%
MCHR [2]; [10]
  Weight Reduction versus Vehicle: 4.5%
MCHR [2]; [11]
  Weight Reduction versus Vehicle: 6.4%
MCHR [2]; [12]
  Weight Reduction versus Vehicle: 7.9%
[3]
  Rat Microsomal Stability: 95%
Hepatocytes [7]
  hepatocyte clearance: approximated that of dog

## CCC(O)COc1ccc(-n2cnc3cc(-c4ccc(Cl)cc4)sc3c2=O)cc1OC (stereo not drawn) [c]
[1]
  Formation of Biliary Lesions: No
[5]
  AUC: 14.5 µM·h
  Kp: 3.2
[6]
  Ki: 12 nM
MCHR [2]
  Efficacy at 30 mg/kg (weight loss in young growing rats): 4.1%
[3]
  Rat Microsomal Stability: 60%
